Entries after “also recorded” stand apart in the source; their conditions may differ.
Experiments:
MDA-LDL = assay: MDA adducts in isolated LDL by ELISA; type: in vivo, mouse; conditions: Ldlr−/− mice
Protocol: FIG. 21A-D show the effects of 2-HOBA on plasma and LDL MDA adducts in hypercholesterolemic Ldlr^−/− mice. (20A) The MDA content in plasma from Ldlr^−/− mice consuming a Western diet for 16 weeks and treated with 2-HOBA, 4-HOBA, or vehicle was measured by TBARS Assay(*p<0.05, **p<0.01). (20B) The levels of MDA adducts were measured from LDL isolated from the Ldlr^−/− mice by ELISA. N=10 per group, ***p<0.001. (20C) LDL was isolated from control and FH subjects (n=6) pre and post LDL apheresis and the MDA adduct content was measured by ELISA. (20D) LDL was isolated from 2-HOBA, 4-HOBA, or vehicle treated hypercholesterolemic Ldlr^−/− mice. WT peritoneal macrophages were incubated for 24 hrs with the LDL and the cellular cholesterol content was measured as described in methods. (20A-D) One-way ANOVA with Bonferroni's post hoc test).
The study was approved by the Vanderbilt University Institutional Review Board (IRB), and all participants gave their written informed consent. The human blood samples from patients with severe FH, who were undergoing LDL apheresis, and healthy controls were obtained using an IRB approved protocol. HDL and LDL were prepared from serum by Lipoprotein Purification Kits (Cell BioLabs, Inc.). Sandwich ELISA was used to measure plasma MDA-LDL and MDA-HDL levels following the manufacturer's instructions (Cell BioLabs, Inc.). Briefly, isolated LDL or HDL samples and MDA-Lipoprotein standards were added onto anti-MDA coated plates, and, after blocking, the samples were incubated with biotinylated anti-apoB or anti-ApoAI primary antibody. The samples were then incubated for 1 h with streptavidin-enzyme conjugate and 15 min with substrate solution. After stopping the reaction, the O.D. was measured at 450 nm wavelength. MDA-ApoAI was detected in mouse plasma by immunoprecipitation of ApoAI and western blotting. […] Proteins were visualized and quantitated by Odyssey 3.0 Quantification software (LI-COR).

IL-1β, IL-6, TNF-α, SAA = assay: Plasma/serum inflammatory cytokines by ELISA; type: in vivo, mouse
Protocol: The inflammatory cytokines including IL-1β (5A), IL-6 (5B), TNF-α (5C) and SAA (5D) were measured by ELISA in plasma from mice consuming a western diet for 16 weeks and treated with 2-HOBA, 4-HOBA, or vehicle. N=8 per group.*p<0.05, **p<0.01. ***p<0.001. One-way ANOVA with Bonferroni's post hoc test.
Serum IL-1β, IL-6 and TNF-α levels were measured by ELISA (R&D System). N=7 or 8 mice per group, N.S., One-way ANOVA with Bonferroni's post hoc test.

aortic endothelial cells = assay: H2O2-induced apoptosis of endothelial cells (Annexin V); type: cell-based, mouse; conditions: 250 μM H2O2, 24 h, 500 μM compound; compared to vehicle or 4-HOBA
Protocol: (6A and 6B) Mouse aortic endothelial cells (6A) or primary macrophages (6B) were incubated for 24 h with 250 μM H2O2 alone or with either 4-HOBA or 2-HOBA (500 μM). Apoptotic cells were then detected by Annexin V staining and flow cytometry. (6C to 6H) The mRNA levels of IL-1β, IL-6, and TNF-α were analyzed by real time PCR in the peritoneal macrophages incubated for 24 h with either oxidized LDL (6C-6E) or 250 μM H2O2 (6F-6H) alone or with either 4-HOBA or 2-HOBA (500 μM). (6A to 6H) Data are presented as mean±SEM from three independent experiments, ***p<0.001, One-way ANOVA with Bonferroni's post hoc test.
Peritoneal macrophages were isolated from mice 72 hours post injection of 3% thioglycollate and maintained in DMEM plus 10% fetal bovine serum (FBS, Gibco) as previously described^30. Human aortic endothelial cells (HAECs) were obtained from Lonza and maintained in endothelial cell basal medium-2 plus 1% FBS and essential growth factors (Lonza).
Cell apoptosis was induced as indicated and detected by fluorescent labeled Annexin V staining and quantitated by either Flow Cytometry (BD 5 LSRII) or counting Annexin V positive cells in images captured under a fluorescent microscope. The apoptotic cells in atherosclerotic lesions were measured by TUNEL staining of cross-sections of atherosclerotic proximal aortas as previously described^30. […]

NCc1ccccc1O [2-HOBA, 2-hydroxybenzylamine]
MDA content in LDL (MDA-LDL): reduced | reduction of MDA adduct content in isolated LDL (ELISA) (MDA-LDL; compared to 4-HOBA): 54% | reduction of MDA adduct content in isolated LDL (ELISA) (MDA-LDL; compared to vehicle): 57% | cytokine levels (IL-1β, IL-6, TNF-α) (IL-1β, IL-6, TNF-α, SAA; Ldlr−/− mice on chow diet, 1 g/L): no impact | serum levels of IL-1β, IL-6, TNF-α, and serum amyloid A (IL-1β, IL-6, TNF-α, SAA; Ldlr−/− mice, western diet 16 weeks, versus 4-HOBA or vehicle): decreased; also recorded: reduces | number of apoptotic cells, endothelial cell cultures (aortic endothelial cells): markedly decreased
